Earlier results on 2 compounds are cited in US20240044899A1, “BIOMARKERS FOR FIMEPINOSTAT THERAPY” (Curis, Inc, priority 2021, published 2024).

This data set relates to MYC-altered DLBCL/HGBL patients. The settings on record: Prospective phase 2, cited from earlier work.

Read-outs that look alike come from different tables or passages of the source.

With `O=C(/C=C\n1cnc(-c2cc(C(F)(F)F)cc(C(F)(F)F)c2)n1)NNc1cnccn1` [Selinexor, reference compound], under “MYC IHC >40%, sample size 47”, the ORR is 13%.

Take Tisagenlecleucel: where the note is “DHL, sample size 16”, the CRR is 25% and the ORR is given as 50%/.
